From the NIST ThermoML archive (doi:10.1016/j.jct.2013.02.001)
Several values for one entry are separate records, joined by “and”; a condition that tells them apart may be missing. Equal entries are not always repeated. Numbers after ± are expanded uncertainties.

Experiment: molar heat capacity at constant pressure
Settings: 101.33 kPa, Quantum Design PPMS relaxation calorimeter

O=P([O-])([O-])OP(=O)([O-])[O-].[Fe+2].[Fe+2] [iron(II) pyrophosphate]
molar heat capacity at constant pressure
Settings	Crystal 1	Crystal 2
1 K	–	0.08666 ± 0.0091 J/K/mol
1.913 K	–	0.1778 ± 0.018 J/K/mol
2 K	–	0.1915 ± 0.02 J/K/mol
2.064 K	–	0.1986 ± 0.02 J/K/mol
2.26 K	–	0.2225 ± 0.022 J/K/mol
2.531 K	–	0.2638 ± 0.027 J/K/mol
2.801 K	–	0.3059 ± 0.031 J/K/mol
3 K	–	0.3363 ± 0.035 J/K/mol
3.099 K	–	0.357 ± 0.036 J/K/mol
3.44 K	–	0.423 ± 0.043 J/K/mol
3.822 K	–	0.5078 ± 0.051 J/K/mol
4 K	–	0.5546 ± 0.057 J/K/mol
4.26 K	–	0.6259 ± 0.063 J/K/mol
4.75 K	–	0.7875 ± 0.079 J/K/mol
5 K	–	0.8911 ± 0.091 J/K/mol
5.271 K	–	1.009 ± 0.1 J/K/mol
5.851 K	–	1.309 ± 0.13 J/K/mol
6 K	–	1.402 ± 0.14 J/K/mol
6.516 K	–	1.743 ± 0.17 J/K/mol
7 K	–	2.14 ± 0.22 J/K/mol
7.28 K	–	2.343 ± 0.23 J/K/mol
8 K	–	3.105 ± 0.32 J/K/mol
8.038 K	–	3.122 ± 0.31 J/K/mol
8.944 K	–	4.246 ± 0.43 J/K/mol
9 K	–	4.353 ± 0.44 J/K/mol
9.847 K	–	5.612 ± 0.56 J/K/mol
10 K	–	5.87 ± 0.14 J/K/mol
10.08 K	–	5.991 ± 0.6 J/K/mol
10.35 K	–	6.444 ± 0.65 J/K/mol
10.86 K	–	7.341 ± 0.73 J/K/mol
11 K	–	7.59 ± 0.19 J/K/mol
11.2 K	–	7.958 ± 0.8 J/K/mol
11.38 K	–	8.272 ± 0.83 J/K/mol
11.88 K	–	9.198 ± 0.92 J/K/mol
12 K	–	9.403 ± 0.23 J/K/mol
12.4 K	–	10.13 ± 1 J/K/mol
12.41 K	–	10.27 ± 1 J/K/mol
12.91 K	–	11.04 ± 1.1 J/K/mol
13 K	–	11.22 ± 0.27 J/K/mol
13.42 K	–	11.97 ± 1.2 J/K/mol
13.81 K	–	12.78 ± 1.3 J/K/mol
13.93 K	–	12.96 ± 1.3 J/K/mol
14 K	–	13.1 ± 0.32 J/K/mol
14.15 K	–	13.36 ± 1.3 J/K/mol
14.44 K	–	13.97 ± 1.4 J/K/mol
14.67 K	–	14.41 ± 1.4 J/K/mol
14.95 K	–	15.04 ± 1.5 J/K/mol
15 K	–	15.16 ± 0.37 J/K/mol
15.19 K	–	15.57 ± 1.6 J/K/mol
15.31 K	–	15.94 ± 1.6 J/K/mol
15.46 K	–	16.16 ± 1.6 J/K/mol
15.7 K	–	16.68 ± 1.7 J/K/mol
15.96 K	–	17.32 ± 1.7 J/K/mol
16 K	–	17.48 ± 0.42 J/K/mol
16.21 K	–	17.94 ± 1.8 J/K/mol
16.46 K	–	18.55 ± 1.9 J/K/mol
16.73 K	–	19.27 ± 1.9 J/K/mol
16.97 K	–	19.88 ± 2 J/K/mol
17 K	–	20.05 ± 0.48 J/K/mol
17.03 K	–	20.07 ± 2 J/K/mol
17.21 K	–	20.48 ± 2 J/K/mol
17.47 K	–	21.15 ± 2.1 J/K/mol
17.72 K	–	21.75 ± 2.2 J/K/mol
17.97 K	–	22.35 ± 2.2 J/K/mol
18 K	–	22.46 ± 0.54 J/K/mol
18.22 K	–	22.9 ± 2.3 J/K/mol
18.45 K	–	23.46 ± 2.3 J/K/mol
18.7 K	–	23.76 ± 2.4 J/K/mol
18.86 K	–	23.9 ± 2.4 J/K/mol
18.96 K	23.94 ± 2.4 J/K/mol and 23.94 ± 0.57 J/K/mol	23.94 ± 0.57 J/K/mol
19 K	23.61 ± 0.57 J/K/mol	–
19.22 K	23.87 ± 2.4 J/K/mol	–
19.47 K	23.67 ± 2.4 J/K/mol	–
19.72 K	23.25 ± 2.3 J/K/mol	–
19.96 K	22.81 ± 2.3 J/K/mol	–
20 K	22.76 ± 0.55 J/K/mol	–
20.21 K	22.3 ± 2.2 J/K/mol	–
20.45 K	21.81 ± 2.2 J/K/mol	–
20.7 K	21.41 ± 2.1 J/K/mol	–
20.95 K	21.05 ± 2.1 J/K/mol	–
21.21 K	20.68 ± 2.1 J/K/mol	–
21.46 K	20.31 ± 2 J/K/mol	–
21.71 K	20.15 ± 2 J/K/mol	–
21.96 K	20.02 ± 2 J/K/mol	–
22.21 K	19.89 ± 0.4 J/K/mol	–
22.47 K	19.76 ± 0.4 J/K/mol	–
22.74 K	19.73 ± 0.4 J/K/mol	–
22.99 K	19.67 ± 0.39 J/K/mol	–
23.23 K	19.65 ± 0.39 J/K/mol	–
23.29 K	19.66 ± 0.39 J/K/mol	–
23.48 K	19.65 ± 0.39 J/K/mol	–
23.52 K	19.74 ± 0.4 J/K/mol	–
23.7 K	19.62 ± 0.39 J/K/mol	–
23.73 K	19.62 ± 0.39 J/K/mol	–
23.9 K	19.67 ± 0.39 J/K/mol	–
23.98 K	19.66 ± 0.39 J/K/mol	–
24.1 K	19.7 ± 0.39 J/K/mol	–
24.3 K	19.72 ± 0.39 J/K/mol	–
24.47 K	19.77 ± 0.4 J/K/mol	–
24.66 K	19.78 ± 0.4 J/K/mol	–
24.86 K	19.85 ± 0.4 J/K/mol	–
25 K	19.89 ± 0.4 J/K/mol and 19.88 ± 0.48 J/K/mol	–
25.05 K	19.91 ± 0.4 J/K/mol	–
25.25 K	19.94 ± 0.4 J/K/mol	–
25.46 K	19.99 ± 0.4 J/K/mol	–
25.48 K	20.02 ± 0.4 J/K/mol	–
25.65 K	20.06 ± 0.4 J/K/mol	–
25.84 K	20.15 ± 0.4 J/K/mol	–
25.86 K	20.19 ± 0.4 J/K/mol	–
25.98 K	20.18 ± 0.4 J/K/mol	–
26.04 K	20.21 ± 0.4 J/K/mol	–
26.23 K	20.27 ± 0.41 J/K/mol	–
26.42 K	20.35 ± 0.41 J/K/mol	–
26.51 K	20.4 ± 0.41 J/K/mol	–
26.62 K	20.45 ± 0.41 J/K/mol	–
26.81 K	20.52 ± 0.41 J/K/mol	–
26.98 K	20.63 ± 0.41 J/K/mol	–
27 K	20.61 ± 0.41 J/K/mol	–
27.2 K	20.71 ± 0.41 J/K/mol	–
27.39 K	20.81 ± 0.42 J/K/mol	–
27.53 K	20.88 ± 0.42 J/K/mol	–
27.58 K	20.9 ± 0.42 J/K/mol	–
27.78 K	20.99 ± 0.42 J/K/mol	–
27.98 K	20.92 ± 0.42 J/K/mol	–
27.99 K	20.94 ± 0.42 J/K/mol	–
28.18 K	20.76 ± 0.41 J/K/mol	–
28.34 K	20.71 ± 0.41 J/K/mol	–
28.53 K	20.72 ± 0.41 J/K/mol	–
28.55 K	20.74 ± 0.41 J/K/mol	–
28.68 K	20.78 ± 0.42 J/K/mol	–
28.75 K	20.76 ± 0.41 J/K/mol	–
28.95 K	20.82 ± 0.42 J/K/mol	–
29.05 K	20.85 ± 0.42 J/K/mol	–
29.12 K	20.86 ± 0.42 J/K/mol	–
29.33 K	20.93 ± 0.42 J/K/mol	–
29.51 K	21.05 ± 0.42 J/K/mol	–
29.53 K	20.99 ± 0.42 J/K/mol	–
29.72 K	21.07 ± 0.42 J/K/mol	–
29.91 K	21.11 ± 0.42 J/K/mol	–
30 K	21.15 ± 0.51 J/K/mol	–
30.06 K	21.18 ± 0.42 J/K/mol	–
30.11 K	21.2 ± 0.42 J/K/mol	–
30.3 K	21.27 ± 0.42 J/K/mol	–
30.5 K	21.35 ± 0.43 J/K/mol	–
30.52 K	21.34 ± 0.43 J/K/mol	–
30.7 K	21.43 ± 0.43 J/K/mol	–
30.89 K	21.5 ± 0.43 J/K/mol	–
31.05 K	21.58 ± 0.43 J/K/mol	–
31.54 K	21.77 ± 0.43 J/K/mol	–
31.86 K	21.93 ± 0.44 J/K/mol	–
32.06 K	22.02 ± 0.44 J/K/mol	–
32.55 K	22.21 ± 0.44 J/K/mol	–
33.06 K	22.48 ± 0.45 J/K/mol	–
33.6 K	22.75 ± 0.46 J/K/mol	–
34.07 K	22.98 ± 0.46 J/K/mol	–
35 K	23.58 ± 0.57 J/K/mol	–
35.39 K	23.86 ± 0.48 J/K/mol	–
39.3 K	26.23 ± 0.53 J/K/mol	–
40 K	26.79 ± 0.64 J/K/mol	–
43.62 K	29.29 ± 0.59 J/K/mol	–
45 K	30.48 ± 0.73 J/K/mol	–
48.44 K	33.24 ± 0.67 J/K/mol	–
50 K	34.53 ± 0.83 J/K/mol	–
53.8 K	37.9 ± 0.76 J/K/mol	–
55 K	38.88 ± 0.93 J/K/mol	–
59.7 K	43.41 ± 0.87 J/K/mol	–
60 K	43.45 ± 1 J/K/mol	–
65 K	48.17 ± 1.2 J/K/mol	–
66.33 K	49.51 ± 0.99 J/K/mol	–
70 K	52.96 ± 1.2 J/K/mol	–
73.67 K	56.22 ± 1.1 J/K/mol	–
75 K	57.77 ± 1.3 J/K/mol	–
80 K	62.51 ± 1.4 J/K/mol	–
81.81 K	63.97 ± 1.3 J/K/mol	–
85 K	67.27 ± 1.5 J/K/mol	–
90 K	72.12 ± 1.6 J/K/mol	–
90.85 K	72.47 ± 1.4 J/K/mol	–
95 K	76.73 ± 1.7 J/K/mol	–
100 K	81.13 ± 1.8 J/K/mol	–
100.84 K	81.1 ± 1.6 J/K/mol	–
110 K	89.39 ± 2 J/K/mol	–
110.99 K	89.55 ± 1.8 J/K/mol	–
120 K	97.12 ± 2.1 J/K/mol	–
120.88 K	97.62 ± 2 J/K/mol	–
130 K	104.5 ± 2.3 J/K/mol	–
131.05 K	105.42 ± 2.1 J/K/mol	–
140 K	111.61 ± 2.5 J/K/mol	–
141.03 K	112.91 ± 2.3 J/K/mol	–
150 K	118.53 ± 2.6 J/K/mol	–
151.17 K	119.77 ± 2.4 J/K/mol	–
160 K	125.27 ± 2.8 J/K/mol	–
161.25 K	126.73 ± 2.5 J/K/mol	–
170 K	131.84 ± 2.9 J/K/mol	–
171.3 K	133.11 ± 2.7 J/K/mol	–
180 K	138.23 ± 3 J/K/mol	–
181.45 K	139.41 ± 2.8 J/K/mol	–
190 K	144.41 ± 3.2 J/K/mol	–
191.55 K	145.2 ± 2.9 J/K/mol	–
200 K	150.38 ± 3.3 J/K/mol	–
201.65 K	151.21 ± 3 J/K/mol	–
210 K	156.13 ± 3.4 J/K/mol	–
211.78 K	157.08 ± 3.1 J/K/mol	–
220 K	161.63 ± 3.6 J/K/mol	–
221.88 K	161.91 ± 3.2 J/K/mol	–
230 K	166.89 ± 3.7 J/K/mol	–
232.02 K	167.23 ± 3.3 J/K/mol	–
240 K	171.91 ± 3.8 J/K/mol	–
242.09 K	171.91 ± 3.4 J/K/mol	–
250 K	176.68 ± 3.9 J/K/mol	–
252.14 K	177.54 ± 3.5 J/K/mol	–
260 K	181.21 ± 4 J/K/mol	–
262.21 K	182.5 ± 3.6 J/K/mol	–
270 K	185.5 ± 4.1 J/K/mol	–
272.36 K	187.75 ± 3.8 J/K/mol	–
273.15 K	186.8 ± 4.1 J/K/mol	–
280 K	189.56 ± 4.2 J/K/mol	–
282.44 K	193.26 ± 3.9 J/K/mol	–
290 K	193.4 ± 4.2 J/K/mol	–
292.45 K	194.84 ± 3.9 J/K/mol	–
298.15 K	196.38 ± 4.3 J/K/mol	–
300 K	197.04 ± 4.3 J/K/mol	–
302.52 K	200.88 ± 4 J/K/mol	–
